# Measurements published in patent publication US12253513B2, “Methods and compositions for the selective lysis of blood cells and separation of microbial cells” (QVELLA CORPORATION, priority 2018, dated 2025).
# Assays:
# [1] = system: Pseudomonas aeruginosa (PA), Proteus mirabilis (PM), and Staphylococcus aureus (SA); assay: Microbial cell intactness: ΔCT by real-time RT-PCR, spiked whole blood samples; format: cell-based; settings: 0.94% w/v detergent in type 3 reagent/blood mixture; all three species
# [2] = system: Pseudomonas aeruginosa (PA), Proteus mirabilis (PM), and Staphylococcus aureus (SA); assay: Microbial cell intactness: ΔCT by real-time RT-PCR, spiked phosphate buffer samples; format: cell-based; settings: Triton X-100 0-0.75% w/v with SPS 15 mg/mL, no high pH; all cell types
# Description: The effect of Triton X-100, one of the components of the type 2 blood lysis reagent, on microbial cell intactness, was experimentally investigated in the absence of a high pH environment (e.g. in the absence of a carbonate-bicarbonate buffer). Experiments were performed by contacting spiked phosphate buffer samples containing Pseudomonas aeruginosa (PA), Proteus mirabilis (PM), and Staphylococcus aureus (SA), prepared according to Example 3 below, with solutions containing Triton X-100 and SPS, such that the final concentrations of Triton X-100 in the various samples were 0, 0.188, 0.375, 0.55 and 0.75% w/v, and the SPS concentration was 15 mg/mL. Sample preparation and real time RT-PCR was performed according to the methods provided in Example 5 below. Spiked phosphate buffer samples, prepared according to the method of Example 3 below, were also prepared for spiked control and subjected to real time RT-PCR according to the method of Example 4 below. The ΔCT value, determined based on the difference between the spiked phosphate buffer sample CT value and the spiked control CT value, was employed as a proxy for microbial cell intactness after exposure to Triton X-100.
# Bacterial cell suspension stock of 50 μL, having about 10^3 CFU of respective bacterial cells was added to 5 mL of 1 mM Phosphate Buffer (PB) and mixed by gentle vortexing. […]
Molecule,"ΔCT, Tween 20 compared with Triton X-100 as non-ionic detergent [1]",ΔCT [2]
"CCCCCCCCCCCC(=O)OCCOCCOCCOCCOCCOCCOCCOCCOCCOCCOCCOCCOCCOCCOCCOCCOCCOCCOCCOCCOCC(OCCOCCOCCOCCOCCOCCOCCOCCOCCOCCOCCOCCOCCOCCOCCOCCOCCOCCOCCOCCO)C1OCC(OCCOCCOCCOCCOCCOCCOCCOCCOCCOCCOCCOCCOCCOCCOCCOCCOCCOCCOCCOCCO)C1OCCOCCOCCOCCOCCOCCOCCOCCOCCOCCOCCOCCOCCOCCOCCOCCOCCOCCOCCOCCO (centres unmarked) [Tween 20, Polysorbate 20]",very similar,–
"polyethylene glycol p-(1,1,3,3-tetramethylbutyl)-phenyl ether [Triton X-100]",–,≤ 2
